Where a SMILES comes first, the peptide text is derived from it. Bridges are numbered along the chain shown (N, C = ends). [ ]: non-standard residue; d: D form. 2Nal = N[C@@H](Cc1ccc2ccccc2c1)C(=O)O; NMeE = CN[C@@H](CCC(=O)O)C(=O)O; NMeQ = CN[C@@H](CCC(N)=O)C(=O)O; Cba = N[C@@H](CC1CCC1)C(=O)O; S5 = C=CCCC[C@](C)(N)C(=O)O; Ac6c = NC1(C(=O)O)CCCCC1
Tests used:
β-catenin [1] = molecular target: T1, β-catenin (Homo sapiens, UniProt P35222); test: KD(nM)
Description: (§1) Table printed on a drawing sheet, FIG. 1
Head of the field: KD(nM)
(§2) First copying reader's note: Kinetic binding constants printed under a sensorgram plot (Biacore assay of β-catenin binding according to the description).

β-catenin [2] = molecular target: T1, β-catenin; test: kd(1/s)
Description: as §1
Head of the field: kd(1/s)
as §2

Colo320DM = Colo320DM cell viability; format: cell-based, human
Description: In some embodiments, a polypeptide described herein inhibits binding of BLC9 to β-catenin when assessed in a cell-viability assay. In some embodiments, the cell-viability assay is a CellTiterGlo luminescent assay, wherein the viability of cells is quantitatively measured. Various cell lines, transformed cell lines or primary cells derived from a healthy subject or subject suffering from a disease can be used in this assay.

β-catenin [3] = molecular target: T1, β-catenin; test: ka(1/Ms)
Description: as §1
Head of the field: ka(1/Ms)
as §2

LEF-TCF-bla HCT116 cells = test: Wnt reporter assay: Wnt/Beta-Catenin-LEF-TCF-bla HCT116 inhibitor screen, constitutively activated; format: cell-based; conditions: 5 hours incubation with compound
Description: In various embodiments, a polypeptide described herein inhibits binding of BCL9 to β-catenin when assessed in a Wnt transcription assay. In some embodiments, the Wnt transcription assay is a cell-based assay. In some embodiments, the cell-based Wnt transcription assay is a GeneBLAzer® beta-lactamase (bla) reporter assay. Various cell lines, transformed cell lines or primary cells derived from a healthy subject or subject suffering from a disease can be used in this assay. A cell line known to be dependent on canonical Wnt/β-catenin signaling for its survival may also be used. In some embodiments, CellSensor™ LEF/TCF-bla HCT-116 cells are used in this reporter assay. These cells contain a beta-lactamase (BLA) reporter gene under the control of a 0-catenin/LEF/TCF response element stably integrated into HCT-116 cells. As the cells constitutively express beta-lactamase, adding a polypeptide that inhibits binding of BCL9 to β-catenin in this assay leads to reduced production of beta-lactamase. The efficiency of the polypeptide in suppressing Wnt transcription can therefore be quantitatively calculated in this assay. In some embodiments, a polypeptide described herein suppresses the Wnt transcription as measured in a GeneBLAzer® beta-lactamase (bla) reporter assay, which is indicative of the ability of the polypeptide to inhibit binding of BCL9 to β-catenin.
Wnt/Beta-Catenin-LEF-TCF-bla HCT116-Inhibitor Screen, Constitutively Activated. LEF-TCF-bla HCT116 cells are thawed and prepared as described above for the Activator Screen. 32 μL of cell suspension is added to each well of a 384-well Poly-D-Lysine assay plate. Cells in Assay Media are incubated for 16-24 hours in the plate at 37° C./5% CO2 in a humidified incubator. 4 μL of a 10× serial dilution of ICG-001 (control inhibitor starting concentration, 25,000 nM) or compounds are added to appropriate wells of the plate. 4 μL of Assay Media is added to all wells to bring the final assay volume to 40 μL. The plate is incubated for 5 hours at 37° C./5% CO2 in a humidified incubator. 8 μL of 1 μM Substrate Loading Solution is added to each well and the plate is incubated for 2 hours at room temperature. The plate is read on a fluorescence plate reader.

T1 sequence (P35222 2-781 limits assumed): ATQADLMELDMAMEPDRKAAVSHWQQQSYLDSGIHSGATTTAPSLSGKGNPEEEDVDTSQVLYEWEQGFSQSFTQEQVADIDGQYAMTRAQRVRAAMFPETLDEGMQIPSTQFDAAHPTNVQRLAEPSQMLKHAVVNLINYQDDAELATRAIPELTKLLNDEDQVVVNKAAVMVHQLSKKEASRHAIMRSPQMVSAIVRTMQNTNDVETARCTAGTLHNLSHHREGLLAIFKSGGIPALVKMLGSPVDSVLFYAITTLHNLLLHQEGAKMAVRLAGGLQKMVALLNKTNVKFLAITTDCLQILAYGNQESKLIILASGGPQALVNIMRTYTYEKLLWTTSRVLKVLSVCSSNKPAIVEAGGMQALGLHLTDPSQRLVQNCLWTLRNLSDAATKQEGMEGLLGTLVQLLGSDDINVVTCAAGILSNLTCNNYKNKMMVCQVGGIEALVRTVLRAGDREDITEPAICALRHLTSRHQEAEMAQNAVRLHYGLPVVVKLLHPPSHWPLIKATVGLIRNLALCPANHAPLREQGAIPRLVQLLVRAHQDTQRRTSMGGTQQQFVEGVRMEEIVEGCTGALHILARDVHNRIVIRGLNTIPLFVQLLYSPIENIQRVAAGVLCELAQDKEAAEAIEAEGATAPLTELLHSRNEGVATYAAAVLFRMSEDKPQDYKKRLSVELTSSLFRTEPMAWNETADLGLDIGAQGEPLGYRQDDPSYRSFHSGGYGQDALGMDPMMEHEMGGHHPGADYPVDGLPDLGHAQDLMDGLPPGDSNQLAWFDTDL

| SMILES | Kd (β-catenin [1]) | kd (β-catenin [2]) | IC50 (Colo320DM) | ka(1/Ms) (β-catenin [3]) | IC50 (LEF-TCF-bla HCT116 cells) |
| --- | --- | --- | --- | --- | --- |
| CC[C@H](C)[C@@H]1NC(=O)[C@@](C)(NC(=O)[C@H](CCCNC(=N)N)NC(=O)[C@H](CC(C)C)NC(=O)[C@@H](NC(=O)[C@H](CCC(N)=O)NC(=O)[C@H](CC(C)C)NC(=O)[C@H](CO)NC(=O)[C@H](CCCNC(=N)N)NC(=O)[C@H](CCC(N)=O)NC(=O)[C@H](CCCNC(=N)N)NC(=O)[C@H](Cc2c[nH]cn2)NC(C)=O)[C@@H](C)O)CCCC=CCCC[C@@](C)(C(=O)N[C@@H](CC2CCC2)C(=O)N[C@@H](Cc2ccc3ccccc3c2)C(N)=O)NC(=O)[C@H](CCCNC(=N)N)NC(=O)[C@H](CCC(N)=O)NC1=O [SEQ ID NO: 147, HRQRSLQTLRXIQRX(CBA)(2-Nal)] | 0.0285 µM | 0.009538 s⁻¹ | 2.53 µM | 3.348E + 5 1/Ms | 1.54 µM |
| CC[C@H](C)[C@@H]1NC(=O)[C@@](C)(NC(=O)[C@H](CCCNC(=N)N)NC(=O)[C@H](CC(C)C)NC(=O)[C@@H](NC(=O)[C@H](CCC(N)=O)N(C)C(=O)[C@H](CC(C)C)NC(C)=O)[C@@H](C)O)CCCC=CCCC[C@@](C)(C(=O)N[C@@H](CC2CCC2)C(=O)N[C@@H](Cc2ccc3ccccc3c2)C(N)=O)NC(=O)[C@H](CCCNC(=N)N)NC(=O)[C@H](CCC(N)=O)NC1=O [SEQ ID NO: 108, L(N-methylQ)TLRXIQRX(CBA)(2-Nal)] (Ac-L[NMeQ]TLR[S5]IQR[S5][Cba][2Nal]-NH2; staple 6-10) |  |  | 3.1 µM |  | 3.16 µM |
| CC[C@H](C)[C@@H]1NC(=O)[C@@](C)(NC(=O)[C@H](CCCNC(=N)N)NC(=O)[C@H](CC(C)C)NC(=O)[C@@H](NC(=O)[C@H](CCC(N)=O)NC(=O)[C@H](CC(C)C)NC(=O)[C@H](CO)NC(=O)[C@H](CCCNC(=N)N)NC(=O)[C@H](CCC(N)=O)NC(=O)[C@H](CCCNC(=N)N)NC(=O)[C@H](Cc2c[nH]cn2)NC(C)=O)[C@@H](C)O)CCCC=CCCC[C@@](C)(C(=O)NC2(C(=O)N[C@@H](Cc3ccc4ccccc4c3)C(N)=O)CCCCC2)NC(=O)[C@H](CCCNC(=N)N)NC(=O)[C@H](CCC(N)=O)NC1=O [SEQ ID NO: 177, HRQRSLQTLRXIQRX(A6C)(2-Nal)] (Ac-HRQRSLQTLR[S5]IQR[S5][Ac6c][2Nal]-NH2; staple 11-15) |  |  | 2.67 µM |  | 4.45 µM |
| CC[C@H](C)[C@@H]1NC(=O)[C@@](C)(NC(=O)[C@H](CCCNC(=N)N)NC(=O)[C@H](CC(C)C)NC(=O)[C@@H](NC(=O)[C@H](CCC(N)=O)N(C)C(=O)[C@H](CC(C)C)NC(=O)[C@H](CO)NC(=O)[C@H](CCCNC(=N)N)NC(=O)[C@H](CCC(=O)O)N(C)C(=O)[C@H](CCCNC(=N)N)NC(=O)[C@H](Cc2c[nH]cn2)NC(C)=O)[C@@H](C)O)CCCC=CCCC[C@@](C)(C(=O)N[C@@H](CC2CCC2)C(=O)N[C@@H](Cc2ccc3ccccc3c2)C(N)=O)NC(=O)[C@H](CCCNC(=N)N)NC(=O)[C@H](CCC(N)=O)NC1=O [SEQ ID NO: 154, HR(N-methylE)RSL(N-methylQ)TLRXIQRX(CBA)(2-Nal)] (Ac-HR[NMeE]RSL[NMeQ]TLR[S5]IQR[S5][Cba][2Nal]-NH2; staple 11-15) |  |  | 1.91 µM |  | 2.26 µM |

Source: patent US11591365B2, “BCL9 peptides and variants thereof” (WntRx Pharmaceuticals Inc., priority 2017, dated 2023)
